The text below walks through data of patent publication US20170130052A1, “A POLYMER BASED ON A MALTODEXTRIN FOR ENCAPSULATING ORGANIC COMPOUNDS” (ROQUETTE ITALIA S.P.A., priority 2014, published 2017).

This series in a line: Solubility of ketoprofen/dexamethasone owing to encapsulation in the polymers. The settings on record: water.

In brackets after ≈: the same amount, converted by molar mass.

For `C[C@@H]1C[C@H]2[C@@H]3CCC4=CC(=O)C=C[C@]4(C)[C@@]3(F)[C@@H](O)C[C@]2(C)[C@@]1(O)C(=O)CO` [Dexamethasone], the solubility – broadly, the concentration that dissolves in the medium under given conditions – is 90 µg/mL (≈ 229 µM).
